Consider 34 molecules from US7662832B2, “Pyrrolo[2,3-c]pyridine derivatives and processes for the preparation thereof” (priority 2004, dated 2010).

Counter-ions that a name gives are not always drawn.

The target in this test is Proton Pump (H^+/K^+-ATPase) (Sus scrofa, UniProt P19156). Kind of test: Inhibitory effects on proton pump (H^+/K^+-ATPase) activity. It counts as biochemical. The following applies: hog gastric vesicles; K^+ stimulated H^+/K^+-ATPase activity; 30 minutes at 37° C.
Sequence of Proton Pump (H^+/K^+-ATPase) (P19156 2-1034 limits assumed): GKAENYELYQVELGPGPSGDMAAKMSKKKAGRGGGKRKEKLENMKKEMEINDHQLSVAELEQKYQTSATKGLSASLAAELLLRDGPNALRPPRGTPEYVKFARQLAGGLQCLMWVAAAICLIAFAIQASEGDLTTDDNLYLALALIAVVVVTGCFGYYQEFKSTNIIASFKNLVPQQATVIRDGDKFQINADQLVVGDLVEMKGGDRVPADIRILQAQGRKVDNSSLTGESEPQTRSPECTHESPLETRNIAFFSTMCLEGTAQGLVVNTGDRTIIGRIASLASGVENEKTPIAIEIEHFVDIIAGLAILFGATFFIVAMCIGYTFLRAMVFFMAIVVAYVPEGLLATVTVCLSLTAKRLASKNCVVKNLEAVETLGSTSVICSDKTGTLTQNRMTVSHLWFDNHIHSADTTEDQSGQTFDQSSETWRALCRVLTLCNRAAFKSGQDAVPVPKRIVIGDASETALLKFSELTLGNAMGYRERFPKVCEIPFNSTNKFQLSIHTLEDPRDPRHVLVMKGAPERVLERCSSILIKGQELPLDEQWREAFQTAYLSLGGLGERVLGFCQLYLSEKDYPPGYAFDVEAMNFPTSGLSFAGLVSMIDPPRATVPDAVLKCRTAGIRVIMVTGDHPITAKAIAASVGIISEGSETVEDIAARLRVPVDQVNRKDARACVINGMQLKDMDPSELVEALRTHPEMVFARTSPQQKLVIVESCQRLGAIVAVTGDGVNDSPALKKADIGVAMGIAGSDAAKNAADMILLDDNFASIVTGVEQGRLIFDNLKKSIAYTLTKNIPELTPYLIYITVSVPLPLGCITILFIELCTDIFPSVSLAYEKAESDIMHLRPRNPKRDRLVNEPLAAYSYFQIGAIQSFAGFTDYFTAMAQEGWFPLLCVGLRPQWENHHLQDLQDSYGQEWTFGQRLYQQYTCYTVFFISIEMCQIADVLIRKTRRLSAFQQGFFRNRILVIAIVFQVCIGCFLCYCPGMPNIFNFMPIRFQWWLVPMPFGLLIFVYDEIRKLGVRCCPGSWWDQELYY
Sequence of Proton Pump (H^+/K^+-ATPase) (P18434 whole entry partner): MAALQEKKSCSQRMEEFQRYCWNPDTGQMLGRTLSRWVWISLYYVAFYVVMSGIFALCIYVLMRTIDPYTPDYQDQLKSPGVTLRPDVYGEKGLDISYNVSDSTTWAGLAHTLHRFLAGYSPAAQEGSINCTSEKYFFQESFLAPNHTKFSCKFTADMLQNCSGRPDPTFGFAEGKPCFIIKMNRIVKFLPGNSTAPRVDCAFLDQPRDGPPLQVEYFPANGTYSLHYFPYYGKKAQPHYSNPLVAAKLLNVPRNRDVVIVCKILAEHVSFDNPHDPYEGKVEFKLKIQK
`Cc1c(C)n(CC(C)C)c2c(-c3ccc(Cl)cc3)nccc12` [Example 304, 7-(4-chlorophenyl)-1-isobutyl-2,3-dimethyl-1H-pyrrolo[2,3-c]pyridine hydrochloride] had an IC50 of 915 nM.

Molecule `C#CCn1c(C)c(C)c2ccnc(-c3ccc(OC)cc3)c21` [Example 354, 7-(4-methoxyphenyl)-2,3-dimethyl-1-(prop-2-ynyl)-1H-pyrrolo[2,3-c]pyridine hydrochloride] had an IC50 of 150 nM.

As to `CC(C)=CCn1c(C)c(C)c2cc(C(=O)N3CCN(C)CC3)nc(N3CCc4ccccc4C3)c21` [Example 834, [7-(3,4-dihydro-1H-isoquinolin-2-yl)-2,3-dimethyl-1-(3-methylbut-2-enyl)-1H-pyrrolo[2,3-c]pyridin-5-yl]-(4-methylpiperazin-1-yl)-methanone hydrochloride], the IC50 came to 37 nM.

`CC=Cn1c(C)c(C)c2ccnc(CNc3ccc(F)cc3)c21` [Example 108, N-(2,3-dimethyl-1-propenyl-1H-pyrrolo[2,3-c]pyridin-7-ylmethyl)-4-fluorophenylamine hydrochloride] displayed an IC50 of 424 nM.

In the case of `Cc1c(C)n(CC2CC2)c2c(N3CCc4ccccc4C3)nccc12` [Example 497, 1-cyclopropylmethyl-7-(1,2,3,4-tetrahydroisoquinolin-2-yl)-2,3-dimethyl-1H-pyrrolo[2,3-c]pyridine hydrochloride], the midpoint of inhibition, the IC50, lay at 320 nM.

On to `CCC1c2ccccc2CCN1c1nccc2c(C)c(C)n(CC=C(C)C)c12` (stereo not shown) [Example 578, 2-[2,3-dimethyl-1-(3-methylbut-2-enyl)-1H-pyrrolo[2,3-c]pyridin-7-yl]-1-ethyl-1,2,3,4-tetrahydroisoquinoline hydrochloride], for which inhibition was half-maximal at 290 nM (IC50).

`C=CCn1c(C)c(C)c2ccnc(N3CCc4ccccc4C3C3CC3)c21` (stereo not shown) [Example 570, 2-(1-allyl-2,3-dimethyl-1H-pyrrolo[2,3-c]pyridin-7-yl)-1-cyclopropyl-1,2,3,4-tetrahydroisoquinoline hydrochloride] showed an IC50 of 120 nM.

Turning to `C=CCn1c(C)c(C)c2cc(C(=O)NC3CC3)nc(N3CCc4ccccc4C3)c21` [Example 761, 1-allyl-7-(3,4-dihydro-1H-isoquinolin-2-yl)-2,3-dimethyl-N-cyclopropyl-1H-pyrrolo[2,3-c]pyridin-5-carboxamide], half-maximal inhibition (IC50) required 125 nM.

For the molecule `C=CCn1c(C)c(C)c2ccnc(N3CCc4ccccc4C3)c21` [Example 489, 1-allyl-7-(1,2,3,4-tetrahydroisoquinolin-2-yl)-2,3-dimethyl-1H-pyrrolo[2,3-c]pyridine p-toluenesulfonate], the IC50 is 3 nM.

The molecule `Cc1cccc(Cn2c(C)c(C)c3ccnc(N4CCc5ccccc5C4)c32)c1` [Example 515, 1-(3-methylbenzyl)-7-(1,2,3,4-tetrahydroisoquinolin-2-yl)-2,3-dimethyl-1H-pyrrolo[2,3-c]pyridine hydrochloride] yielded an IC50 of 200 nM. Compared with the last molecule, the IC50 is about 67-fold higher.

`Cc1c(C)n(Cc2cccc(F)c2)c2c(CN(C)c3ccc(F)cc3)nccc12` [Example 114, N-[1-(3-fluorobenzyl)-2,3-dimethyl-1H-pyrrolo[2,3-c]pyridin-7-ylmethyl]-N-(4-fluorophenyl)-methylamine hydrochloride] registered an IC50 of 27 nM.

As for `Cc1c(C)n(CC(C)C)c2c(N(C)Cc3ccc(F)cc3)nccc12` [Example 149, 7-[N-(4-fluorobenzyl)-N-methyl]amino-1-isobutyl-2,3-dimethyl-1H-pyrrolo[2,3-c]pyridine hydrochloride], it took 210 nM to reach half-maximal inhibition (IC50).

As to `Cc1c(C)n(Cc2cccc(Cl)c2)c2c(N3CCc4ccccc4C3)nc(C(=O)N3CCSCC3)cc12` [Example 790, [1-(3-chlorobenzyl)-7-(3,4-dihydro-1H-isoquinolin-2-yl)-2,3-dimethyl-1H-pyrrolo[2,3-c]pyridin-5-yl]-(thiomorpholin-1-yl)-methanone hydrochloride], the IC50 stood at 128 nM.

Turning to `CCn1c(C)c(C)c2ccnc(-c3ccc4ccccc4c3)c21` [Example 404, 1-ethyl-2,3-dimethyl-7-(naphthalen-2-yl)-1H-pyrrolo[2,3-c]pyridine hydrochloride], the IC50 was 95 nM.

For `CCn1nnnc1-c1cc2c(C)c(C)n(Cc3cccc(Cl)c3)c2c(N2CCc3ccccc3C2)n1` [Example 854, 2-[1-(3-chlorobenzyl)-2,3-dimethyl-5-(1-ethyl-1H-tetrazol-5-yl)-1H-pyrrolo[2,3-c]pyridin-7-yl]-1,2,3,4-tetrahydroisoquinoline], it took 282 nM to reach half-maximal inhibition (IC50).

As to `C#CCn1c(C)c(C)c2ccnc(-c3ccc4ccccc4c3)c21` [Example 408, 2,3-dimethyl-7-(naphthalen-2-yl)-1-(prop-2-ynyl)-1H-pyrrolo[2,3-c]pyridine hydrochloride], the IC50 was 89 nM.

As to `Cc1ccc(-c2nccc3c(C)c(C)n(Cc4ccccc4)c23)cc1` [Example 281, 1-benzyl-2,3-dimethyl-7-(p-tolyl)-1H-pyrrolo[2,3-c]pyridine hydrochloride], the IC50 was determined as 292 nM. Compared with the last molecule, the IC50 is about 3.3-fold higher.

As for `C#CCn1c(C)c(C)c2cc(C(N)=O)nc(N3CCc4ccccc4C3)c21` [Example 749, 7-(3,4-dihydro-1H-isoquinolin-2-yl)-2,3-dimethyl-1-(prop-2-ynyl)-1H-pyrrolo[2,3-c]pyridin-5-carboxamide], the IC50 was determined as 1.5 nM. This IC50 lies about 190-fold lower than the previous one.

For `CCNC(=O)c1cc2c(C)c(C)n(Cc3ccccc3)c2c(N2CCc3ccccc3C2)n1` [Example 765, 1-benzyl-7-(3,4-dihydro-1H-isoquinolin-2-yl)-2,3-dimethyl-N-ethyl-1H-pyrrolo[2,3-c]pyridin-5-carboxamide], the midpoint of inhibition, the IC50, lay at 356 nM.

Turning to `COCCn1c(C)c(C)c2ccnc(N3CCc4ccc(F)cc4C3C)c21` (stereo not shown) [Example 546, 7-fluoro-2-[1-(2-methoxyethyl)-2,3-dimethyl-1H-pyrrolo[2,3-c]pyridin-7-yl]-1-methyl-1,2,3,4-tetrahydroisoquinoline hydrochloride], inhibition was half-maximal at 250 nM (IC50).

`C=Cc1ccc(-c2nccc3c(C)c(C)n(CCOC)c23)cc1` [Example 247, 1-(2-methoxyethyl)-2,3-dimethyl-7-(4-vinylphenyl)-1H-pyrrolo[2,3-c]pyridine hydrochloride] returned an IC50 of 90 nM.

The molecule `CCn1c(C)c(C)c2cc(C(=O)N3CCSCC3)nc(N3CCc4ccccc4C3)c21` [Example 808, [7-(3,4-dihydro-1H-isoquinolin-2-yl)-1-ethyl-2,3-dimethyl-1H-pyrrolo[2,3-c]pyridin-5-yl]-(thiomorpholin-4-yl)-methanone hydrochloride] gave an IC50 of 55 nM.

In the case of `Cc1c(C)n(Cc2cccc(F)c2)c2c(N3CCc4ccccc4C3)nc(C(=O)N3CCCCC3)cc12` [Example 796, [7-(3,4-dihydro-1H-isoquinolin-2-yl)-1-(3-fluorobenzyl)-2,3-dimethyl-1H-pyrrolo[2,3-c]pyridin-5-yl]-(piperidin-1-yl)-methanone hydrochloride], inhibition was half-maximal at 305 nM (IC50).

In turn, `C=CCn1c(C)c(C)c2cc(C(=O)NCc3cccc(Cl)c3)nc(N3CCc4ccccc4C3)c21` [Example 758, 1-allyl-7-(3,4-dihydro-1H-isoquinolin-2-yl)-2,3-dimethyl-N-(3-chlorobenzyl)-1H-pyrrolo[2,3-c]pyridin-5-carboxamide hydrochloride] displayed an IC50 of 316 nM.

As for `Cc1c(C)n(CC2CC2)c2c(-c3ccc4ccccc4c3)nccc12` [Example 403, 1-cyclopropylmethyl-2,3-dimethyl-7-(naphthalen-2-yl)-1H-pyrrolo[2,3-c]pyridine hydrochloride], half-maximal inhibition (IC50) required 70 nM.

With `Cc1ccc(CNc2nccc3c(C)c(C)n(CC(C)C)c23)cc1` [Example 198, 1-isobutyl-2,3-dimethyl-7-(4-methylbenzylamino)-1H-pyrrolo[2,3-c]pyridine hydrochloride], the half-maximal inhibitory concentration (IC50) stood at 64 nM. The IC50 values of the last two molecules are within 1.5-fold of each other.

In the case of `Cc1c(C)n(Cc2ccc3ccccc3c2)c2c(N3CCc4ccccc4C3)nccc12` [Example 502, 1-(naphthalen-2-ylmethyl)-7-(1,2,3,4-tetrahydroisoquinolin-2-yl)-2,3-dimethyl-1H-pyrrolo[2,3-c]pyridine hydrochloride], the IC50 worked out at 300 nM.

With `C=CCn1c(C)c(C)c2ccnc(-c3ccc(C)cc3)c21` [Example 277, 1-allyl-2,3-dimethyl-7-(p-tolyl)-1H-pyrrolo[2,3-c]pyridine hydrochloride], half-maximal inhibition (IC50) was put at 129 nM.

`CCn1c(C)c(C)c2cc(C(=O)N3CCN(c4ccccc4)CC3)nc(N3CCc4ccccc4C3)c21` [Example 810, [7-(3,4-dihydro-1H-isoquinolin-2-yl)-1-ethyl-2,3-dimethyl-1H-pyrrolo[2,3-c]pyridin-5-yl]-(4-phenylpiperazin-1-yl)-methanone hydrochloride] gave an IC50 of 436 nM.

The molecule `Cc1c(C)n(Cc2cccc(F)c2)c2c(N3CCc4ccccc4C3)nc(C(=O)O)cc12` [Example 737, 7-(3,4-dihydro-1H-isoquinolin-2-yl)-1-(3-fluorobenzyl)-2,3-dimethyl-1H-pyrrolo[2,3-c]pyridin-5-carboxylic acid] yielded an IC50 of 25 nM.

Regarding `Cc1ccc(Cn2c(C)c(C)c3ccnc(CN(C)c4ccc(F)cc4)c32)cc1` [Example 117, N-[2,3-dimethyl-1-(4-methylbenzyl)-1H-pyrrolo[2,3-c]pyridin-7-ylmethyl]-N-(4-fluorophenyl)-methylamine hydrochloride], half-maximal inhibition (IC50) was put at 46 nM.

Regarding `C#CCn1c(C)c(C)c2ccnc(-c3ccc(C)cc3)c21` [Example 280, 2,3-dimethyl-1-(prop-2-ynyl)-7-(p-tolyl)-1H-pyrrolo[2,3-c]pyridine hydrochloride], 345 nM corresponded to half-maximal inhibition (IC50).

Turning to `COc1ccc(-c2nccc3c(C)c(C)n(Cc4ccccc4F)c23)cc1` [Example 353, 1-(2-fluorobenzyl)-7-(4-methoxyphenyl)-2,3-dimethyl-1H-pyrrolo[2,3-c]pyridine hydrochloride], half-maximal inhibition (IC50) was put at 490 nM.

As to `Cc1c(C)n(Cc2ccccc2)c2c(N3CCc4ccccc4C3)nc(C(=O)O)cc12` [Example 744, 1-benzyl-7-(3,4-dihydro-1H-isoquinolin-2-yl)-2,3-dimethyl-1H-pyrrolo[2,3-c]pyridin-5-carboxylate sodium], 130 nM corresponded to half-maximal inhibition (IC50).

For orientation: IC50 means the concentration at which inhibition is half-maximal. High values mean weaker potency in that assay, low ones greater potency in that assay.
